Test results taken from patent US6984649B1, “Pyridine derivatives” (Bayer Aktiengesellschaft, priority 2000, dated 2006).
Where a name gives a salt, the structure may show the parent alone.

Key:
human IKK-β = target: T1, human IKK-β (Homo sapiens, UniProt O14920); assay: IKK-β kinase inhibitory assay; type: biochemical; conditions: compounds as yielded by solid phase synthesis, purity about 40 to 90%, read-out: In vitro activity grade (In vitro IC50)
T1 construct: A cDNA fragment encoding human IKK-β open reading frame was generated by PCR; His tag (from pcDNA3.1/His C); made in house; host or cells: Sf21 insect cells (baculovirus); substrate made in E. coli
T1 sequence (O14920 1-756): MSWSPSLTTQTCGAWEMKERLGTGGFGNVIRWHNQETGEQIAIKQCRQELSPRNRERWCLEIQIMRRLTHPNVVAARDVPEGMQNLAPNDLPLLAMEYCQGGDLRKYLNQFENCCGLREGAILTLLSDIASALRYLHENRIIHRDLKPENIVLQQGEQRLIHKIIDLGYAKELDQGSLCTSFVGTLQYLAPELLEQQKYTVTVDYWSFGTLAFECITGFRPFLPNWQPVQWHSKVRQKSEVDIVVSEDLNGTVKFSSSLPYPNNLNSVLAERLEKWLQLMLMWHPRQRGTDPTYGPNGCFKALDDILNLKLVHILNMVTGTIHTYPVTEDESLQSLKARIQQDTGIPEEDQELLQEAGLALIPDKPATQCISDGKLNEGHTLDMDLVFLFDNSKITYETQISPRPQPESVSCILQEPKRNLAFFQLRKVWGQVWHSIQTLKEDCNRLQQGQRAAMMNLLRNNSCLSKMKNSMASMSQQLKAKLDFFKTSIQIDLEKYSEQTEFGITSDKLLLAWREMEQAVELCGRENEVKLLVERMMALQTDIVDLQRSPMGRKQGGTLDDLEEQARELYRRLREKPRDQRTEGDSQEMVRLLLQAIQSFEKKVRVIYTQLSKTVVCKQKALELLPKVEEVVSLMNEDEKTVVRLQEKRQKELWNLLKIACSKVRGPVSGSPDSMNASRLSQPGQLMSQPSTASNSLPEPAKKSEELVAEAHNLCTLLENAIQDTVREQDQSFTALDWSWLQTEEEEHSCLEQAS
In short: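 Radiometric read-out: streptavidin capture of 33P-labelled bio-GST-IκBα(1-54), 0.2 μM, after a 2 h room-temperature reaction started with ATP/[γ-33P]ATP. Enzyme was recombinant His-tagged human IKK-β expressed in Sf21 insect cells, used at 0.6 μg/ml in Tris-HCl pH 7.6/MgCl2 kinase buffer. Compounds added in 2.5% DMSO.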

Jurkat T cells = assay: IL-2 production in Jurkat T cells in response to anti-CD3/anti-CD28 antibody stimulation; type: cell-based; conditions: Homo sapiens, read-out: Cellular activity grade (Jurkat) (Cellular IC50)

SMILES	IC50 (human IKK-β) [nM]	IC50 (Jurkat T cells) [nM]
N#Cc1c(C2CCCNC2)cc(-c2ccccc2O)nc1N (stereo not shown) [Example 1-1, 2-amino-6-(2-hydroxyphenyl)-4-(3-piperidinyl)-nicotinonitrile hydrochloride]	< 500	< 1000
N#Cc1c(C2CCNC2)cc(-c2ccccc2O)nc1N (stereo not shown) [Example 1-2, 2-amino-6-(2-hydroxyphenyl)-4-(3-pirrolidinyl)nicotinonitrile trifluoroacetate]	< 500	1000 to 10000
N#Cc1c(N)nc(-c2ccccc2O)c(F)c1C1CCCNC1 (stereo not shown) [Example 1-4, 2-amino-5-fluoro-6-(2-hydroxyphenyl)-4-(3-piperidinyl)-nicotinonitrile trifluoroacetate]	< 500	1000 to 10000
N#Cc1c(C2CCCNC2)cc(-c2ccccc2O)nc1NCc1ccccc1 (stereo not shown) [Example 4-1, 2-(benzylamino)-6-(2-hydroxyphenyl)-4-(3-piperidinyl)nicotinonitrile hydrochloride]	< 500	1000 to 10000
Cc1c(C2CCCNC2)cc(-c2ccccc2O)nc1N (stereo not shown) [Example 14-1, 2-[6-amino-5-methyl-4-(3-piperidinyl)-2-pyridinyl]phenol hydrochloride]	< 500	1000 to 10000
O=C1Nc2nc(-c3ccccc3O)cc(C3CCCNC3)c2CO1 (stereo not shown) [Example 18-2, 7-(2-hydroxyphenyl)-5-(3-piperidinyl)-1,4-dihydro-2H-pyrido[2,3-d][1,3]oxazin-2-one hydrochloride]	< 500	1000 to 10000
N#Cc1c(N2CCC(C(N)=O)CC2)cc(-c2ccccc2O)nc1N [Example 34-2, 1-[2-amino-3-cyano-6-(2-hydroxyphenyl)-4-pyridinyl]-4-piperidinecarboxamide]	500 to 2000	–

More lines, now with the values ahead:

IC50 (human IKK-β) [nM]	IC50 (Jurkat T cells) [nM]	SMILES
500 to 2000	–	N#Cc1c(N2CCCC(N)C2)cc(-c2ccccc2O)nc1N (stereo not shown) [Example 34-3, 2-amino-4-(3-amino-1-piperidinyl)-6-(2-hydroxyphenyl)nicotinonitrile hydrochloride]
< 500	–	N#Cc1c(NC2CCCNC2)cc(-c2ccccc2O)nc1N (stereo not shown) [Example 34-4, 2-amino-6-(2-hydroxyphenyl)-4-(3-piperidinylamino)nicotinonitrile hydrochloride]
< 500	–	NCCNc1cc(-c2c(O)cccc2OCC2CC2)nc2c1COC(=O)N2 [Example 35-1, 5-[(2-aminoethyl)amino]-7-[2-(cyclopropylmethoxy)-6-hydroxyphenyl]-1,4-dihydro-2H-pyrido[2,3-d][1,3]oxazin-2-one hydrochloride]
